From the NIST ThermoML archive (doi:10.1021/acs.jced.6b00219)
Numbers after ± are expanded uncertainties.

Legend:
[1] = Molar enthalpy of transition or fusion; conditions: Crystal; DSC
[2] = Crystal; DTA

O=[N+]([O-])c1cn[nH]c1[N+](=O)[O-] [3,4-dinitro-1H-pyrazole]
Molar enthalpy of transition or fusion [1]: 2.81 ± 0.203 kcal/mol
Normal melting temperature [2]: 87.83 ± 1.1 °C
